Test results taken from patent publication US20150337351A1, “METHODS OF MICROORGANISM IMMOBILIZATION” (priority 2014, published 2015).

Columns and labels:
Assay type in all cases: cell-based
[1] = system: Staphylococcus aureus (SA); assay: Clone growth of captured, MHA-immobilized cells from simulated blood, darkfield digital microscopy; settings: 6 μg/mL FOX; 3 hours (0, 60, 120, 180 minutes); 35° C.
Experimental: Simulated blood specimens were used. Simulated blood specimens were produced by spiking SA, PA, and non-target bacilli species isolates into 10 mL volumes of blood from two short-fill CPD blood bank bags. A total of 29 simulated blood samples were produced, each having a microorganism concentration of approximately 5 CFU/mL of bacterial target species, confirmed by quantitative culture. Spiked isolates used to produce the simulated blood samples included 14 Staphylococcus aureus (SA), 3 Pseudomonas aeruginosa (PA), and 12 non-target Gram-negative bacilli species. Twenty additional control samples were produced which contained no spikes. Each sample was diluted with 30 mL of modified tryptic soy broth medium to promote growth, followed by a 4-hour incubation at 35° C. Following the 4-hour incubation period, samples were centrifuged briefly. The resulting microorganism cells pellets were resuspended in an electrokinetic concentration buffer to produce 1 mL samples for introduction into the detection system. Microorganism samples comprising 20 μL aliquots were pipetted into 14 microchannel flowcells. A 5-minute low-voltage electrokinetic capture was performed to concentrate the microorganisms on to a detection surface associated with each flowcell. […] Controls included quantitative culturing, disk diffusion tests for isolate resistance phenotype, and 20 blood samples without spikes.

[2] = system: Pseudomonas aeruginosa IHMA 519749 (Paer); assay: Biosensor mixed species diffusion assay (immobilized cells, microscopic detection), growth of resistant strain; settings: for Paer growth?: MEM 4 (4 μg/mL), MHA 0.850% agar, 4 hours
Experimental: (§1) A mixed species diffusion variation of Hodge test using a biosensor with immobilized cells and microscopic detection was performed using the same bacterial strains. Heavy suspensions of Ecol and Paer were prepared in L-histidine buffer from fresh overnight blood agar plates. Heavy suspensions were diluted in normal saline to produce 0.5 McFarland suspensions, noting the volumes of each suspension required and using the same volumes to produce 10^8 cfu/mL suspensions of each strain in L-histidine. These suspensions were further diluted to create […] and 2×10^5 cfu/mL suspensions for heavy and moderate density working samples. The working samples were then diluted 1:1 in 2 mM L-DOPA for EKC.
(§2) The strains were next introduced to a biosensor for EKC, immobilization, and detection. Paer suspensions were loaded first, placing 5 uL in the exit port side (to maintain the resistant Paer isolate in one half of each channel) of each biosensor flowcell channel to cover one half of the flowcell. Six flowcells were loaded with each concentration. EKC was performed for 5 minutes at 1.5V, and then all flowcells were washed with two aliquots of 160 μL 1 mM L-DOPA (from the entry port). Ecol suspensions were next loaded, introducing 20 μL of cells suspension from the entry port to cover the full flowcell. Six flowcells were loaded with each concentration. EKC was performed for 5 minutes at 1.5V, and all flowcells washed with 160 μL of 1/10 MHB. The manner in which the cells were introduced and captures created a site comprising Ecol cells that were distal from any Paer cells (i.e., on the entry port side of the flowcell), as well as Ecol cells that were proximal to the Paer cells (i.e., on the exit port side of the flowcell).
(§3) Antibiotic media were prepared for immobilization and inhibition testing as follows. […] An immobilization medium source plate was prepared in the detection system and maintained at 45° C. The source plate wells were loaded with 20 μL of the 10× stocks and MHB without antibiotic for growth controls. The sample cassette was placed in the detection system and maintained at 40° C. A 180 uL volume of 0.944% MHA was added to each well of the source plate and mixed, and 100 uL of pre-immobilization immobilizing medium (with an agar concentration of 0.850%) was withdrawn and introduced to a flowcell in accordance with the experimental design. The loaded biosensor was allowed to equilibrate for 5 minutes, and was then removed and cooled for 5 minutes to induce the agar immobilizing agent to change to solid phase. The flowcell ports were then sealed, and growth, imaging, and analysis were performed, with examination of each flowcell for growth of Paer, examination of the distal portion of each flowcell for growth of Ecol in the absence of Paer (distal sensitivity), and examination of the proximal portion of each flowcell for growth of Ecol in the presence of Paer (proximal resistance), indicative of a positive mixed species resistance due to diffusion of metallo-beta-lactamase.
(§4) In order to test for enzyme-mediated cross-species resistance effects, a method for was devised to test a sensitive strain, Escherichia coli ATCC 25922 (Ecol), in the presence of a resistant strain, Pseudomonas aeruginosa IHMA 519749 (Paer) in the immobilized format. The method involved first immobilizing the resistant strain on the surface of a portion of each test flowcell of the cassette (approximately half) and then immobilizing the sensitive (sentinel) strain on the surface of the full flowcell including the area containing the resistant strain. This strategy provides an internal control for treatment effects on the sentinel strain in an area far from the resistant strain along with an area where close-field effects can be observed in the same flowcell. […]

[3] = system: Escherichia coli ATCC 25922 (Ecol); assay: Biosensor mixed species diffusion assay (immobilized cells, microscopic detection), growth of sentinel strain; settings: for Mixed species resistance factor diffusion? / Ecol growth in distal site? / Ecol growth in proximal site?: MEM 4 (4 μg/mL); for Ecol growth in distal site?: distal from Paer; for Ecol growth in proximal site?: proximal to Paer
Experimental: as §1, §2, §3, §4

[4] = Flowcell 9, Ecol 10^6/Paer 10^6
[5] = Flowcell 10, Ecol 10^6/Paer 10^5
[6] = Flowcell 11, Ecol 10^5/Paer 10^6
[7] = Flowcell 12, Ecol 10^5/Paer 10^5
[8] = Flowcell 9, Ecol 10^6/Paer 10^6, 4 hours
[9] = Flowcell 10, Ecol 10^6/Paer 10^5, 4 hours
[10] = Flowcell 11, Ecol 10^5/Paer 10^6, 4 hours
[11] = Flowcell 12, Ecol 10^5/Paer 10^5, 4 hours

CO[C@@]1(NC(=O)Cc2cccs2)C(=O)N2C(C(=O)O)=C(COC(N)=O)CS[C@@H]21 [FOX, cefoxitin]
SA clone growth in immobilizing medium with antibiotic (darkfield images, FIG. 2B) [1]: growth indicating a methicillin-resistant phenotype

C[C@@H](O)[C@H]1C(=O)N2C(C(=O)O)=C(S[C@@H]3CN[C@H](C(=O)N(C)C)C3)[C@H](C)[C@H]12 [MEM, meropenem]
Paer growth? [2, 4]: Yes
Paer growth? [2, 5]: Yes
Paer growth? [2, 6]: Yes
Paer growth? [2, 7]: Yes
Paer growth morphology and rate under antibiotic vs growth control ([2]; MEM at 4 μg/mL, immobilized in MHA, proximal site): same morphology and growth rate as the growth control condition
Mixed species resistance factor diffusion? [3, 4]: No
Ecol growth in distal site? [3, 8]: No
Ecol growth in proximal site? [3, 8]: No
Mixed species resistance factor diffusion? [3, 5]: No
Ecol growth in distal site? [3, 9]: No
Ecol growth in proximal site? [3, 9]: No
Mixed species resistance factor diffusion? [3, 6]: No
Ecol growth in distal site? [3, 10]: No
Ecol growth in proximal site? [3, 10]: No
Mixed species resistance factor diffusion? [3, 7]: No
Ecol growth in distal site? [3, 11]: No
Ecol growth in proximal site? [3, 11]: No
Ecol growth and morphology under antibiotic (time-lapse images) ([3]; MEM at 4 μg/mL, immobilized in MHA, 4 hours): slight growth or elongation of the single cell with later fading and in many colonies complete lysis
